Measured values from US20220304945A1, “METHODS OF TREATING METABOLIC SYNDROME RELATED CONDITIONS USING RETINOIC ACID RECEPTOR AGONISTS” (Cornell University, priority 2014, published 2022).

Tested on: SREBP1, FASN, PPAR-α, CPT1-α, MCP-1, TNF-α, α-SMA mRNA
Test: PCR of kidney genes of lipid metabolism, inflammation and fibrosis in HFD, Ob/Ob and Db/Db mice (Example 23)
Assay type: in vivo, mouse
Experimental: Quantitative RT-PCR (Q-PCR)-Q-PCR was performed using SYBR Green PCR master mix on a Bio-Rad MyiQ2 Real Time PCR iCycler (Bio-Rad, Inc. Hercules, Calif.). Gene specific primers (Table 5) were used to amplify mRNA target genes, which were normalized to Hprt internal control genes. cDNA from 3-5 mice per experimental group was analyzed for relative mRNA fold changes, calculated using the Pfaffl method (Pfaffl M W, A new mathematical model for relative quantification in real-time RT-PCR, Nucleic Acids Res. 2001 May 1; 29(9):e45). Relative gene expression values are reported as mean±standard error of the mean (S.E.M) and P-values calculated using one-way analysis of variance followed by Bonferroni multiple comparison test post-hoc analysis.
Diabetic kidney disease (aka diabetic nephropathy (DN)) frequently occurs in individuals with type 2 diabetes. The causes of DN are unclear but insulin resistance, hyperlipidemia and obesity are implicated because these states can impair renal lipid metabolism leading to the accumulation of free fatty acids (FFA), which can promote renal inflammation, fibrosis and impaired kidney function. There is evidence that transcriptions factors involved in de novo lipid synthesis such as srebpl contribute to the pathogenesis of DN. […] HF-fed mice treated with AC261066 had no increase in mRNA transcripts of SREBP1 and FASN (FIG. 33A).
We also measured kidney mRNA levels of pro-inflammatory and fibrogenic mediators MCP-1 (aka CCL2), TNF-α, and α-SMA in HFD-fed mice and two genetic mouse models of obesity and diabetes, Ob/Ob and Db/Db mice. MCP-1, TNF-α, and α-SMA are implicated in inflammation and fibrosis in DN and expression of these genes are frequently elevated in models of DN. […] Kidney mRNA transcripts of α-SMA, which contributes to DN fibrosis, was increased 5-6 fold in HFD Ob/Ob and Db/Db mice compared to wt con (FIG. 33D). HFD Ob/Ob and Db/Db mice treated AC261066 had 40-50% reductions in a-SMA transcripts compared to their respective HFD and genetic controls (FIG. 33D).

[1] = HFD, Ob/Ob and Db/Db mice vs respective untreated

## CCCCOCCOc1nc(-c2ccc(C(=O)O)c(F)c2)sc1C [AC261066]
HF-fed mice
  kidney mRNA transcripts of PPAR-α and CPT1-α, increase vs HFD-fed mice: approximately 2 fold
  kidney mRNA transcripts of SREBP1 and FASN: no increase
HFD, Ob/Ob and Db/Db mice vs respective controls
  reduction in kidney α-SMA transcripts: 40-50%
[1]
  reduction in kidney mRNA transcripts of MCP-1: 40-50%
  reduction in kidney mRNA transcripts of TNF-α: 40-50%
